Laboratory results as given in patent US20100093808A1, “SALT AND POLYMORPH OF A DPP-IV INHIBITOR” (priority 2005, published 2010).
Counter-ions that a name gives are not always drawn.

Target: T1, human DPP-IV (Homo sapiens, UniProt P27487)
T1 construct: made in house; host or cells: Pichia pastoris (purified from the culture medium)
Test: DPP-IV activity assay (colorimetric / fluorometric)
Assay type: biochemical
Settings: natural human DPP-IV from human plasma pool or recombinant human DPP-IV; 37° C., pH 7.8
Procedure: Activity of DPP-IV inhibitors are tested with natural human DPP-IV derived from a human plasma pool or with recombinant human DPP-IV. Human citrate plasma from different donors is pooled, filtered through a 0.2 micron membrane under sterile conditions and aliquots of 1 mL are shock frozen and stored at […]. until used. In the colorimetric DPP-IV assay 5 to 10 μL human plasma and in the fluorometric assay 1.0 μL of human plasma in a total assay volume of 100 μL is used as an enzyme source. The cDNA of the human DPP-IV sequence of amino acid 31- to 766, restricted for the N-terminus and the transmembrane domain, is cloned into pichia pastoris. […]
In the colorimetric assay H-Ala-Pro-pNA.HCl (Bachem L-1115) is used as a substrate. […] Fluorescence is detected in a Perkin Elmer Luminescence Spectrometer LS 50B at an excitation wavelength of 400 nm and an emission wavelength of 505 nm continuously every 15 seconds for 10 to 30 minutes. Initial rate constants are calculated by best fit linear regression. The absorption of pNA liberated from the colorimetric substrate is detected in a Packard SpectraCount at […] continuously every 2 minutes for 30 to 120 minutes. Initial rate constants are calculated by best fit linear regression. […]
IC50 determinations of test compounds are calculated by non-linear best fit regression of the DPP-IV inhibition of at least 5 different compound concentrations. […]

T1 sequence (P27487 31-766): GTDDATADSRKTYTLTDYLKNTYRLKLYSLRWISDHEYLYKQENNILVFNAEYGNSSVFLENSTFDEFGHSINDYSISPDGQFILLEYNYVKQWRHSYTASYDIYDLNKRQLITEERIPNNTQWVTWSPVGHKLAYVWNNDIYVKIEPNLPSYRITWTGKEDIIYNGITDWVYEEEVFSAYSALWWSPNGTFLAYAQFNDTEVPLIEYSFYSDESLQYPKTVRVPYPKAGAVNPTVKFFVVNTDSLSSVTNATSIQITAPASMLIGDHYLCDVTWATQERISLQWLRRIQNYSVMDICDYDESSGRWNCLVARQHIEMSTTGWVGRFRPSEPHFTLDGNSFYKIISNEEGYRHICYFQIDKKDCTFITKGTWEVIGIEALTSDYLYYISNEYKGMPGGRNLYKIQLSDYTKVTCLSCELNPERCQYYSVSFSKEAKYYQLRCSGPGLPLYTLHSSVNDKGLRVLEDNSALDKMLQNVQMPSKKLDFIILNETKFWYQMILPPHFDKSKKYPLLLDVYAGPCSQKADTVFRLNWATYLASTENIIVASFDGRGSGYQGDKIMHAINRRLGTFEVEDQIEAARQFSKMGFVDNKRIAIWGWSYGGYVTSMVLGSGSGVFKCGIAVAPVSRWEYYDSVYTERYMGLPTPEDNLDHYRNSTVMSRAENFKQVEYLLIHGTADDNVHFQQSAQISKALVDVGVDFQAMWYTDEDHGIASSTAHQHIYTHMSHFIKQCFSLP

IC50: 21.2 nM | Ki: 22.7 nM
SMILES: CC(C)(CCn1cnc(-c2cccnc2)c1)NCC(=O)N1CCC[C@H]1C#N [(2S)-1-{[1,1-Dimethyl-3-(4-pyridin-3-yl-imidazol-1-yl)-propylamino]-acetyl}-pyrrolidine-2-carbonitrile fumarate]
